target: glucan synthase (GS) prepared from Candida albicans MY1055 (Candida albicans, UniProt O13428); assay: Glucan synthase inhibition (polymerization assay, 96-well); format: biochemical; conditions: GS from C. albicans MY1055; 60 min incubation at 22° C.; read-out: Candida Albicans GS IC50 (converted)
Summary of the method: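 Partially purified glucan synthase from C. albicans MY1055 membranes incorporated 0.5 mM ³H-UDPG with 25 μM GTP-γ-S, HEPES pH 7.5, over 60 min at 22 °C. TCA-precipitated glucan was counted by scintillation. IC50 (ng/mL) came from sigmoidal fits of duplicate 3-fold dilution series.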

glucan synthase (GS) prepared from Candida albicans MY1055, sequence (O13428 1-1897): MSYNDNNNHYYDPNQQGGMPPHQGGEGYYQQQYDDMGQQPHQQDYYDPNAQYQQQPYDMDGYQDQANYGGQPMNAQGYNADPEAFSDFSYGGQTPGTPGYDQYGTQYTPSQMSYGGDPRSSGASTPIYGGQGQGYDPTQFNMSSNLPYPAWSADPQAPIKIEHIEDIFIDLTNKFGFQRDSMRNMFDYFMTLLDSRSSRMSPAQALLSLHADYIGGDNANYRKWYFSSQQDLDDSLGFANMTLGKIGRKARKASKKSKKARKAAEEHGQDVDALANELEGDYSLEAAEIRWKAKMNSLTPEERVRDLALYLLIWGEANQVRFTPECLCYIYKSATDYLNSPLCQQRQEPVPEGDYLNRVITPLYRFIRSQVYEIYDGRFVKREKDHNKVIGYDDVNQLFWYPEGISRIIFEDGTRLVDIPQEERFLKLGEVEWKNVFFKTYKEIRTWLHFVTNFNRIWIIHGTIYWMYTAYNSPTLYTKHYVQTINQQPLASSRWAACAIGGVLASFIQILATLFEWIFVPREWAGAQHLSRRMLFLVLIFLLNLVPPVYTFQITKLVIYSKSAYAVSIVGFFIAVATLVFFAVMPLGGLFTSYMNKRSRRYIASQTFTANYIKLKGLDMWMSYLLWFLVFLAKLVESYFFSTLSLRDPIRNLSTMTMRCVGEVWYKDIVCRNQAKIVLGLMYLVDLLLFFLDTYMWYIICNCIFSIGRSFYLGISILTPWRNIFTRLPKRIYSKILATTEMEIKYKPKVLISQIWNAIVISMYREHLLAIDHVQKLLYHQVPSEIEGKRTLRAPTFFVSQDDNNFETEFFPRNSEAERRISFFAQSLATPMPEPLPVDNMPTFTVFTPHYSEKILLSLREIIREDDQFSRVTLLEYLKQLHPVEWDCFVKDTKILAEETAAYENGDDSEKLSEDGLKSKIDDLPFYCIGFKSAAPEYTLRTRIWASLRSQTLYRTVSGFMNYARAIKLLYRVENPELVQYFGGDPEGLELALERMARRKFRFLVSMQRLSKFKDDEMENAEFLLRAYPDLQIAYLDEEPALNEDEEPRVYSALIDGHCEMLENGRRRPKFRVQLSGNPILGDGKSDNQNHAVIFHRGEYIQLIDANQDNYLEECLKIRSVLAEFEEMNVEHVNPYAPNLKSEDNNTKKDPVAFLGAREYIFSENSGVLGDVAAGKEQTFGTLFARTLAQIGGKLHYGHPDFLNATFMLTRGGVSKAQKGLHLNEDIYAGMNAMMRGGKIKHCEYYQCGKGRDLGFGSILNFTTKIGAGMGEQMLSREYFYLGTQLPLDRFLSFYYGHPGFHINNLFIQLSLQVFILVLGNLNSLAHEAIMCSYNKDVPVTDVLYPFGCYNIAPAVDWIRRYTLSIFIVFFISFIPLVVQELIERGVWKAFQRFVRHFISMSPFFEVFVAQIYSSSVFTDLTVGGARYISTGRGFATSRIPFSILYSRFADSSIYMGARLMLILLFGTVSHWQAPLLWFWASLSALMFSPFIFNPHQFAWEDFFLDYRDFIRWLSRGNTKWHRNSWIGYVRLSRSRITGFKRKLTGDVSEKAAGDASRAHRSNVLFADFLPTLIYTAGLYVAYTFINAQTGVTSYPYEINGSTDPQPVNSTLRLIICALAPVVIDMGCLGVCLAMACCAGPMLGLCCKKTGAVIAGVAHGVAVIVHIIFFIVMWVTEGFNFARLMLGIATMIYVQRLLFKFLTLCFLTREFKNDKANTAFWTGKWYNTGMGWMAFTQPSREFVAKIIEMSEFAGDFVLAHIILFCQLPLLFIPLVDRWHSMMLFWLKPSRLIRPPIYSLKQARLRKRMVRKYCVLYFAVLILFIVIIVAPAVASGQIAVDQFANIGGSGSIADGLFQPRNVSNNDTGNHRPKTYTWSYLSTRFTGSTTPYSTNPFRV

Compared with CC(C)[C@@H](C)[C@@]1(C)CC[C@]2(C)[C@H]3CC[C@@H]4[C@@]5(COC[C@@]4(C)[C@@H](OC[C@](C)(N)C(C)C)[C@H](n4nc(Cl)nc4Cl)C5)C3=CC[C@@]2(C)[C@@H]1C(=O)O [Example 34, (1S,4aR,6aS,7R,8R,10aR,10bR,12aR,14R,15R)-15-[[(2R)-2-amino-2,3-dimethylbutyl]oxy]-14-(3,5-dichloro-1H-1,2,4-triazol-1-yl)-8-[(1R)-1,2-dimethylpropyl]-1,6,6a,7,8,9,10,10a,10b,11,12,12a-dodecahydro-1,6a,8,10a-tetramethyl-4H-1,4a-propano-2H-phenanthro[1,2-c]pyran-7-carboxylic acid], CC(C)[C@@H](C)[C@@]1(C)CC[C@]2(C)[C@H]3CC[C@@H]4[C@@]5(COC[C@@]4(C)[C@@H](OC[C@](C)(N)C(C)C)[C@H](n4nccn4)C5)C3=CC[C@@]2(C)[C@@H]1C(=O)O (single isomer, unassigned) [Example 288B] is 2.7-fold lower in IC50: 46.6 nM for the first, 17.2 nM for the second.

Compared with CCC(N)(CC)CO[C@H]1[C@H](n2ncnc2-c2ccncc2)C[C@@]23COC[C@]1(C)[C@@H]2CC[C@H]1C3=CC[C@@]2(C)[C@H](C(=O)O)[C@@](C)([C@H](C)C(C)C)CC[C@]12C [Example 241, (1S,4aR,6aS,7R,8R,10aR,10bR,12aR,14R,15R)-15-(2-amino-2-ethylbutoxy)-8-[(1R)-1,2-dimethylpropyl]-14-[5-(4-pyridinyl)-1H-1,2,4-triazol-1-yl]-1,6,6a,7,8,9,10,10a,10b,11,12,12a-dodecahydro-1,6a,8,10a-tetramethyl-4H-1,4a-propano-2H-phenanthro[1,2-c]pyran-7-carboxylic acid], CC(C)[C@@H](C)[C@@]1(C)CC[C@]2(C)[C@H]3CC[C@@H]4[C@@]5(COC[C@@]4(C)[C@@H](OC[C@](C)(N)C(C)C)[C@H](n4ncnc4-c4cncs4)C5)C3=CC[C@@]2(C)[C@@H]1C(=O)O [Example 193, (1S,4aR,6aS,7R,8R,10aR,10bR,12aR,14R,15R)-15-[[(2R)-2-amino-2,3-dimethylbutyl]oxy]-8-[(1R)-1,2-dimethylpropyl]-14-[5-(5-thiazolyl)-1H-1,2,4-triazol-1-yl]-1,6,6a,7,8,9,10,10a,10b,11,12,12a-dodecahydro-1,6a,8,10a-tetramethyl-4H-1,4a-propano-2H-phenanthro[1,2-c]pyran-7-carboxylic acid] is 3-fold higher in IC50: 1.4 nM for the first, 4.15 nM for the second.

Going from CC(C)[C@@H](C)[C@@]1(C)CC[C@]2(C)[C@H]3CC[C@@H]4[C@@]5(COC[C@@]4(C)[C@@H](OC[C@](C)(N)C(C)C)[C@H](n4ncnc4C(=O)N4CCOCC4)C5)C3=CC[C@@]2(C)[C@@H]1C(=O)O [Example 86, (1S,4aR,6aS,7R,8R,10aR,10bR,12aR,14R,15R)-15-[[(2R)-2-amino-2,3-dimethylbutyl]oxy]-8-[(1R)-1,2-dimethylpropyl]-14-[5-(4-morpholinylcarbonyl)-1H-1,2,4-triazol-1-yl]-1,6,6a,7,8,9,10,10a,10b,11,12,12a-dodecahydro-1,6a,8,10a-tetramethyl-4H-1,4a-propano-2H-phenanthro[1,2-c]pyran-7-carboxylic acid] to CCCNC(=O)c1ncnn1[C@@H]1C[C@@]23COC[C@](C)([C@@H]2CC[C@H]2C3=CC[C@@]3(C)[C@H](C(=O)O)[C@@](C)([C@H](C)C(C)C)CC[C@]23C)[C@H]1OC[C@@](C)(N)C(C)C [Example 105, (1S,4aR,6aS,7R,8R,10aR,10bR,12aR,14R,15R)-15-[[(2S)-2-amino-2,3-dimethylbutyl]oxy]-8-[(1R)-1,2-dimethylpropyl]-14-[5-[(propylamino)carbonyl]-1H-1,2,4-triazol-1-yl]-1,6,6a,7,8,9,10,10a,10b,11,12,12a-dodecahydro-1,6a,8,10a-tetramethyl-4H-1,4a-propano-2H-phenanthro[1,2-c]pyran-7-carboxylic acid], the IC50 falls from 70.5 nM to 29 nM (2.4-fold).

Compared with CCNC(=O)c1ccnn1[C@@H]1C[C@@]23COC[C@](C)([C@@H]2CC[C@H]2C3=CC[C@@]3(C)[C@H](C(=O)O)[C@@](C)([C@H](C)C(C)C)CC[C@]23C)[C@H]1OC[C@](C)(N)C(C)C [Example 298, (1S,4aR,6aS,7R,8R,10aR,10bR,12aR,14R,15R)-15-[[(2R)-2-amino-2,3-dimethylbutyl]oxy]-8-[(1R)-1,2-dimethylpropyl]-14-[5-[(ethylamino)carbonyl]-1H-pyrazol-1-yl]-1,6,6a,7,8,9,10,10a,10b,11,12,12a-dodecahydro-1,6a,8,10a-tetramethyl-4H-1,4a-propano-2H-phenanthro[1,2-c]pyran-7-carboxylic acid], CCCc1ncnn1[C@@H]1C[C@@]23COC[C@](C)([C@@H]2CC[C@H]2C3=CC[C@@]3(C)[C@H](C(=O)O)[C@@](C)([C@H](C)C(C)C)CC[C@]23C)[C@H]1OC[C@](C)(N)C(C)C [Example 169, (1S,4aR,6aS,7R,8R,10aR,10bR,12aR,14R,15R)-15-[[(2R)-2-amino-2,3-dimethylbutyl]oxy]-8-[(1R)-1,2-dimethylpropyl]-14-(5-propyl-1H-1,2,4-triazol-1-yl)-1,6,6a,7,8,9,10,10a,10b,11,12,12a-dodecahydro-1,6a,8,10a-tetramethyl-4H-1,4a-propano-2H-phenanthro[1,2-c]pyran-7-carboxylic acid] is 8.6-fold lower in IC50: 38.1 nM for the first, 4.41 nM for the second.

Going from CC(C)[C@@H](C)[C@@]1(C)CC[C@]2(C)[C@H]3CC[C@@H]4[C@@]5(COC[C@@]4(C)[C@@H](OC[C@](C)(N)C(C)(C)C)[C@H](n4ncnc4C4CCOCC4)C5)C3=CC[C@@]2(C)[C@@H]1C(=O)O [Example 285, (1S,4aR,6aS,7R,8R,10aR,10bR,12aR,14R,15R)-15-[[(2R)-2-amino-2,3,3-trimethylbutyl]oxy]-8-[(1R)-1,2-dimethylpropyl]-14-[5-(tetrahydro-2H-pyran-4-yl)-1H-1,2,4-triazol-1-yl]-1,6,6a,7,8,9,10,10a,10b,11,12,12a-dodecahydro-1,6a,8,10a-tetramethyl-4H-1,4a-propano-2H-phenanthro[1,2-c]pyran-7-carboxylic acid] to CC(C)[C@@H](C)[C@@]1(C)CC[C@]2(C)[C@H]3CC[C@@H]4[C@@]5(COC[C@@]4(C)[C@@H](OC[C@](C)(N)C(C)(C)C)[C@H](n4ncnc4-c4ccc(C6=NCCN6)cc4)C5)C3=CC[C@@]2(C)[C@@H]1C(=O)O [Example 268, (1S,4aR,6aS,7R,8R,8R,10aR,10bR,12aR,14R,15R)-15-[[(2R)-2-amino-2,3,3-trimethylbutyl]oxy]-14-[5-[4-(4,5-dihydro-1H-imidazol-2-yl)phenyl]-1H-1,2,4-triazol-1-yl]-8-[(1R)-1,2-dimethylpropyl]-1,6,6a,7,8,9,10,10a,10b,11,12,12a-dodecahydro-1,6a,8,10a-tetramethyl-4H-1,4a-propano-2H-phenanthro[1,2-c]pyran-7-carboxylic acid], the IC50 falls from 4.07 nM to 0.376 nM (11-fold).

For CC(C)[C@@H](C)[C@@]1(C)CC[C@]2(C)[C@H]3CC[C@@H]4[C@@]5(COC[C@@]4(C)[C@@H](OC[C@@](C)(C(C)C)N(C)C)[C@H](n4cncn4)C5)C3=CC[C@@]2(C)[C@@H]1C(=O)O [Example 18, (1S,4aR,6aS,7R,8R,10aR,10bR,12aR,14R,15R)-15-[[(2R)-2-(dimethylamino)-2,3-dimethylbutyl]oxy]-8-[(1R)-1,2-dimethylpropyl]-14-(1H-1,2,4-triazol-1-yl)-1,6,6a,7,8,9,10,10a,10b,11,12,12a-dodecahydro-1,6a,8,10a-tetramethyl-4H-1,4a-propano-2H-phenanthro[1,2-c]pyran-7-carboxylic acid], the IC50 was 12 nM.
